Patent publication US12157742B2, “Kinase inhibitors exhibiting anti-cancer activity and their method of use” (ALLCRON PHARMA INC., priority 2018, dated 2024)
pIC50: −log10 of the molar value. Counter-ions that a name gives are not always drawn.

Key:
Parameters in all cases: cell survival: unit of the concentration uncertain
[1] = system: K562 expressing BCR-ABL T315I; experiment: Cytotoxicity assay, K562-T315I cells; assay type: cell-based, human
Description: (§1) Cytotoxicity assay: CML patient derived cell lines K562 expressing BCR-ABL T315I, Ph+ALL cell line BV173-T315I, and mouse cell line Ba/F3 T315I were used for cytotoxicity testing. All these cell lines express T315I mutant of BCR-ABL. BV-173-T315I is also a model for blast crisis, the terminal stage in CML. Cell lines were cultured in Iscove's Modified Dulbecco's Medium (IMDM) containing L-glutamine and 25 mM Hepes. The cells were maintained at 37° C. in a humidified CO2 incubator. For cytotoxicity measurement 5000-8000 cells were plated into 96 well plates in quadruplicates. Drugs were dissolved in DMSO and cells were treated in increasing doses ranging from 1 to 10^7 fold. Control cells were treated with respective amounts of DMSO. Cells were incubated for 72 hours and, at the end of the incubation point cell, viability was determined. For this purpose, 25 μl of the cell culture from the 96 well plates were transferred to Ultracruz® black bottom 96 well plates (Santa Cruz Biotechnology) and 25 μl of a live cell detecting fluorescent reagent (Cellular Technology Limited (“CTL”)) was added to the cells. The cells and the CTL reagent was mixed thoroughly and centrifuged for 5 min, at the standard g levels normally used to accelerate settling of the cells to the bottom of the culture medium container without damaging the living cells, and the fluorescence was detected at 405 nm excitation using a CTL scanner. Viable cells will fluoresce green and the machine automatically scans and counts the number of viable cells from each well. The percentage of viable cells in drug treated samples relative to the number of viable cells in DMSO treated samples was then calculated. The data obtained were analyzed using Prism nonlinear regression software (Graphpad Software) for the curve fitting and determination of IC50 values.

[2] = system: mouse cell line Ba/F3 T315I; experiment: Cytotoxicity assay, Ba/F3-T315I cells; assay type: cell-based; conditions: for cancer cell survival rate compared to the DMSO control: 72 hours
Description: as §1

[3] = system: Ph+ALL cell line BV173-T315I; experiment: Cytotoxicity assay, BV173-T315I cells; assay type: cell-based
Description: as §1

[4] = about 10^−6 M to about 10^−5 M, 72 hours

## N#Cc1cc2cc3c(cc2nc1SCC(=O)Nc1ccccc1C(N)=O)OCCO3 [AP-R230, 2-[2-(8-cyano-2H,3H-[1,4]dioxino[2,3-g]quinolin-7-ylsulfanyl)acetamido]benzamide]
[1]; about 5 μM to about 10 μM, 72 hours
  cancer cell survival rate compared to the DMSO control: less than 4%
[2]; about 5 μM to about 10 μM
  cancer cell survival rate compared to the DMSO control: less than 4%

## Cc1cc(C(=O)Nc2ccc(CN3CCN(C)CC3)cc2)ccc1NC(=O)CSc1nc2cc3c(cc2cc1C#N)OCCO3 [AP-R234, 4-[2-(8-cyano-2H,3H-[1,4]dioxino[2,3-g]quinolin-7-ylsulfanyl)acetamido]-3-methyl-N-4-[(4-methylpiperazin-1-yl)methyl]phenylbenzamide hydrochloride]
[1]; dosage printed as 'about M', 72 hours
  cancer cell survival rate compared to the DMSO control: less than 4%
[2]; dosage printed as 'about M'
  cancer cell survival rate compared to the DMSO control: less than 4%

## Cc1ccc(CN2CCCC2)cc1NC(=O)CSc1nc2cc3c(cc2cc1C#N)OCCO3 [AP-R235, 2-[(8-cyano-2,3-dihydro-[1,4]dioxino[2,3-g]quinolin-7-yl)sulfanyl]-N-[2-methyl-5-(pyrrolidin-1-ylmethyl)phenyl]acetamide hydrochloride]
[1]; about 10 μM, 72 hours
  cancer cell survival rate compared to the DMSO control: less than 10%
[2]; about 10 μM
  cancer cell survival rate compared to the DMSO control: less than 2%

## Cc1cccc(Cl)c1NC(=O)CSc1nc2cc3c(cc2cc1C#N)OCCO3 [AP-R342, N-(2-chloro-6-methylphenyl)-2-({8-cyano-2H,3H-[1,4]dioxino[2,3-g]quinolin-7-yl}sulfanyl)acetamide]
[3]; [4]
  cancer cell survival rate compared to the DMSO control: less than 7%
[1]; [4]
  cancer cell survival rate compared to the DMSO control: less than 7%
[2]; about 10^−6 M to about 10^−5 M
  cancer cell survival rate compared to the DMSO control: less than 7%

## Cc1cc(F)ccc1NC(=O)CSc1nc2cc3c(cc2cc1C#N)OCCO3 [AP-R343, 2-({8-cyano-2H,3H-[1,4]dioxino[2,3-g]quinolin-7-yl}sulfanyl)-N-(4-fluoro-2-methylphenyl)acetamide]
[3]; [4]
  cancer cell survival rate compared to the DMSO control: less than 5%
[1]; [4]
  cancer cell survival rate compared to the DMSO control: less than 5%
[2]; about 10^−6 M to about 10^−5 M
  cancer cell survival rate compared to the DMSO control: less than 5%

## Cc1cc(CN2CCCC2)ccc1NC(=O)CSc1nc2cc3c(cc2cc1C#N)OCCO3 [AP-R352, 2-((8-cyano-2,3-dihydro-[1,4]dioxino[2,3-g]quinolin-7-yl)thio)-N-(2-methyl-4-(pyrrolidin-1-ylmethyl)phenyl)acetamide dihydrochloride]
[3]; 72 hours, read-out: IC50 for cell killing
  pIC50: 6.27
[1]; Homo sapiens, 72 hours, read-out: IC50 for cell killing
  pIC50: 5.96
[2]; Mus musculus, BaF3, 72 hours, read-out: IC50 for cell killing
  pIC50: 6.10

## Cc1cc(NC(=O)CSc2nc3cc4c(cc3cc2C#N)OCCO4)n(C)n1 [AP-R357, 2-((8-cyano-2,3-dihydro-[1,4]dioxino[2,3-g]quinolin-7-yl)thio)-N-(1,3-dimethyl-1H-pyrazol-5-yl)acetamide]
[3]; about 30 μM, 72 hours
  cancer cell survival rate compared to the DMSO control: less than 6%
[1]; about 30 μM, 72 hours
  cancer cell survival rate compared to the DMSO control: less than 20%
[2]; about 30 μM
  cancer cell survival rate compared to the DMSO control: less than 7%

## Cc1nn(C)cc1NC(=O)CSc1nc2cc3c(cc2cc1C#N)OCCO3 [AP-R358, 2-((8-cyano-2,3-dihydro-[1,4]dioxino[2,3-g]quinolin-7-yl)thio)-N-(1,3-dimethyl-1H-pyrazol-4-yl)acetamide]
[3]; at 0.625 (unit uncertain)
  cell survival: above 90%
[3]; at 10 (unit uncertain)
  cell survival: about 20%
[1]; at 0.625 (unit uncertain)
  cell survival: above 90%
[1]; at 10 (unit uncertain)
  cell survival: about 20%
[2]; at 0.625 (unit uncertain)
  cell survival: above 90%
[2]; at 10 (unit uncertain)
  cell survival: about 20%
